Results from ChEMBL document CHEMBL5465560, “Selectivity Literature for EUbOPEN Chemogenomic Library” (2024).
Each block holds one compound with its values, some of them ahead of it.

Legend:
[1] = molecular target: Casein kinase I isoform delta (Homo sapiens, UniProt P48730); experiment: Selectivity interaction (Kinase panel (Z-LYTE Assay)) EUB0001632a CSNK1D; conditions: at 10 µM
[2] = molecular target: T1, Histone-lysine N-methyltransferase EHMT2 (Homo sapiens) (UniProt Q96KQ7); experiment: Selectivity interaction (Methyltransferase screen (radiometric assays, panel of 8 PRMTs, 21 protein lysine methyltransferases, 3 DNA methyltransferases, and one RNA methyltransferase)) EUB0000271b EHMT2
T1 sequence (whole entry): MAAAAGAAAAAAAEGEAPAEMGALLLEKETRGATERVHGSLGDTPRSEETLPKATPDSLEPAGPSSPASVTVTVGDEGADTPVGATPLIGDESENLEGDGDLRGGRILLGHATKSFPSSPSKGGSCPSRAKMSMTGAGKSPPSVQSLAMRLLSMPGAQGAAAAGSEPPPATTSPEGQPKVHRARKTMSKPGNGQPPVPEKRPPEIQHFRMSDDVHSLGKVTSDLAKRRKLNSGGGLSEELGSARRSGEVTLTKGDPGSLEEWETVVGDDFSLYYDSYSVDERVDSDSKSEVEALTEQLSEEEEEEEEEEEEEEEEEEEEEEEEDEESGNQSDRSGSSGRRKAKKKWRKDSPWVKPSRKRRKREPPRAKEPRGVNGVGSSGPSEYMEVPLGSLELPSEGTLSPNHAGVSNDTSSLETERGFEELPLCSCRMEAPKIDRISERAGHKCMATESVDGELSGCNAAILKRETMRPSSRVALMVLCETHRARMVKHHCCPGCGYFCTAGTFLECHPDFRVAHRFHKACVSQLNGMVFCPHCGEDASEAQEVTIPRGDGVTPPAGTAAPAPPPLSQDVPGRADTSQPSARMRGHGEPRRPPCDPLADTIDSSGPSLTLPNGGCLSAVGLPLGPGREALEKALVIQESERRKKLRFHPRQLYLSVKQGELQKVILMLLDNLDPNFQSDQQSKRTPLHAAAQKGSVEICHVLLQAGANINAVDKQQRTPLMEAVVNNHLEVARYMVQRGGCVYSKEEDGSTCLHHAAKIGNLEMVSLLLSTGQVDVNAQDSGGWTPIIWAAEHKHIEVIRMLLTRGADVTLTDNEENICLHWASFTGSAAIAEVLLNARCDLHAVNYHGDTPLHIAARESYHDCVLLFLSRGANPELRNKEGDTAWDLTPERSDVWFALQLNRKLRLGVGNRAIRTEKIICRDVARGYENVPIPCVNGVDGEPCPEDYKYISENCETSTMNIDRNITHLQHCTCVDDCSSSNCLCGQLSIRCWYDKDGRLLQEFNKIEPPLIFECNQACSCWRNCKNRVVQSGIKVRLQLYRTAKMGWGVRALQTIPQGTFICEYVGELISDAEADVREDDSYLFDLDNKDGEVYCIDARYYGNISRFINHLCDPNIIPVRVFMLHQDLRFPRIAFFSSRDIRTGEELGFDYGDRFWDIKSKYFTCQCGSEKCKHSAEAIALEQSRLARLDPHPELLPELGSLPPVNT

[3] = molecular target: T2, Dual specificity mitogen-activated protein kinase kinase 5 (Homo sapiens) (UniProt Q13163); experiment: Selectivity interaction (KinomeScan (DiscoverX)) EUB0000595a MAP2K5; conditions: at 10 µM
T2 sequence (whole entry): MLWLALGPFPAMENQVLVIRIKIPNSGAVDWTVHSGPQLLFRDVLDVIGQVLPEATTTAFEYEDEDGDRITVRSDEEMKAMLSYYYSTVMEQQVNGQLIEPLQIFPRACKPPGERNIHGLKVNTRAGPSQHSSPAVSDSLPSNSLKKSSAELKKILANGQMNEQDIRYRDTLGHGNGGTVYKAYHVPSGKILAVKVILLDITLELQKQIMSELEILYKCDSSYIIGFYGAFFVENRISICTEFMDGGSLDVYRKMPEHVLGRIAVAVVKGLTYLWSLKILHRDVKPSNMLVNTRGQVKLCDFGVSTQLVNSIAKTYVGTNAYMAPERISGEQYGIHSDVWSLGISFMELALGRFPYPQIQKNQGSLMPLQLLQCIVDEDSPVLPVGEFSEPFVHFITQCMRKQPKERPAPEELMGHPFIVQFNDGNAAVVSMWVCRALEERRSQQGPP

[4] = molecular target: T3, Serine/threonine-protein kinase 17A (Homo sapiens) (UniProt Q9UEE5); experiment: Selectivity interaction (KinomeScan (DiscoverX)) EUB0000229b STK17A; conditions: at 10 µM
T3 sequence (whole entry): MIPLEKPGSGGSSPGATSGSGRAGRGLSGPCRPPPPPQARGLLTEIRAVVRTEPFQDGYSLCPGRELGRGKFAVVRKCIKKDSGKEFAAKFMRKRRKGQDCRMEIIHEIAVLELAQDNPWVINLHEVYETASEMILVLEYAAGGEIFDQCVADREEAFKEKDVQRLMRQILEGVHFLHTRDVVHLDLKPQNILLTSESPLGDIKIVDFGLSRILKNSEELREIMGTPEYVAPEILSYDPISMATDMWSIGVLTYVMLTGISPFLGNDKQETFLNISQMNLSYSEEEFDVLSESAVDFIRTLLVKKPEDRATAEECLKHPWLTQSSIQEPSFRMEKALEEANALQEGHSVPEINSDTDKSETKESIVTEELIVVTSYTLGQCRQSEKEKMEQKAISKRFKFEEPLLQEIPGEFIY

[5] = molecular target: Serine/threonine-protein kinase Nek4 (Homo sapiens) (UniProt P51957); experiment: Selectivity interaction (ProQinase) EUB0000171b NEK4
[6] = molecular target: T4, cGMP-dependent protein kinase 1 (Homo sapiens) (UniProt Q13976); experiment: Selectivity interaction (KinomeScan (DiscoverX)) EUB0000607a PRKG1; conditions: at 10 µM
T4 sequence (whole entry): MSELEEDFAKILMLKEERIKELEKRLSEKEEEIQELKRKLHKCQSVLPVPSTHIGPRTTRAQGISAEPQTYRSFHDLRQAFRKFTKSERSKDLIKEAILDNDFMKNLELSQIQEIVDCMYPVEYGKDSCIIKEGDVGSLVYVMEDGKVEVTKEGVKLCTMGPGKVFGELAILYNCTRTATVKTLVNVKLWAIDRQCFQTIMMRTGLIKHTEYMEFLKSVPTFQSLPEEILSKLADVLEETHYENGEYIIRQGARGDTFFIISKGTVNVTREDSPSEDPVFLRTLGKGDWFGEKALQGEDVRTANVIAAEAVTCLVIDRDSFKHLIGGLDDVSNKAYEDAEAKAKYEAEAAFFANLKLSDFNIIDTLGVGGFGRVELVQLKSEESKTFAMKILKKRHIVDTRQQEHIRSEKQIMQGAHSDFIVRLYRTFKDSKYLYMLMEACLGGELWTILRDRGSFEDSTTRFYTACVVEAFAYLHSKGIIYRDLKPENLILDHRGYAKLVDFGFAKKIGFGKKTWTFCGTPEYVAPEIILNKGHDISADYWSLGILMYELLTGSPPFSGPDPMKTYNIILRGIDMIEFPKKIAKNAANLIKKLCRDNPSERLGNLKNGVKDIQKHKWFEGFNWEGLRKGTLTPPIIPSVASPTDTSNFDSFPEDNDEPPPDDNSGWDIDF

Chain of Serine/threonine-protein kinase Nek4 (Homo sapiens) (P51957 whole entry, looked up): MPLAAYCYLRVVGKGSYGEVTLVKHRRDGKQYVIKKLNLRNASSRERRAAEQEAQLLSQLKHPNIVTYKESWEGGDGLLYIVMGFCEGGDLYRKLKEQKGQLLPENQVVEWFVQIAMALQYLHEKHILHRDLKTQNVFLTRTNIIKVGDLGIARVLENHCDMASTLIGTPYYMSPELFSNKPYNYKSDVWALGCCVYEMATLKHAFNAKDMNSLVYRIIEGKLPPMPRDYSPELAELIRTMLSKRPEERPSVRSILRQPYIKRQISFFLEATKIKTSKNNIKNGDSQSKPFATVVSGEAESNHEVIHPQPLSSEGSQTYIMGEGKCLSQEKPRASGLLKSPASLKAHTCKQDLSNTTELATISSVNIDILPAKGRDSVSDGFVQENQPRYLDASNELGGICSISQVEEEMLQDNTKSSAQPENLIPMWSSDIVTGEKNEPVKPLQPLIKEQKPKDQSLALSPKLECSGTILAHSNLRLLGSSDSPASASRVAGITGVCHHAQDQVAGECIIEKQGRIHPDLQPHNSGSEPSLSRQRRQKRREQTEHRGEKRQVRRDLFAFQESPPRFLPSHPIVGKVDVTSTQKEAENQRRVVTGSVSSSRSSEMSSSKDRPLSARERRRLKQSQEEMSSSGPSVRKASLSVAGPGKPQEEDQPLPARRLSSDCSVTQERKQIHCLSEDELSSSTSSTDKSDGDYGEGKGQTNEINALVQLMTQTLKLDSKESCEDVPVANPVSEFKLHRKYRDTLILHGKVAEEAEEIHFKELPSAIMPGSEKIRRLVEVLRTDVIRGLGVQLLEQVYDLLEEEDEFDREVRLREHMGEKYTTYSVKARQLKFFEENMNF
Chain of Casein kinase I isoform delta (P48730 whole entry, looked up, canonical isoform): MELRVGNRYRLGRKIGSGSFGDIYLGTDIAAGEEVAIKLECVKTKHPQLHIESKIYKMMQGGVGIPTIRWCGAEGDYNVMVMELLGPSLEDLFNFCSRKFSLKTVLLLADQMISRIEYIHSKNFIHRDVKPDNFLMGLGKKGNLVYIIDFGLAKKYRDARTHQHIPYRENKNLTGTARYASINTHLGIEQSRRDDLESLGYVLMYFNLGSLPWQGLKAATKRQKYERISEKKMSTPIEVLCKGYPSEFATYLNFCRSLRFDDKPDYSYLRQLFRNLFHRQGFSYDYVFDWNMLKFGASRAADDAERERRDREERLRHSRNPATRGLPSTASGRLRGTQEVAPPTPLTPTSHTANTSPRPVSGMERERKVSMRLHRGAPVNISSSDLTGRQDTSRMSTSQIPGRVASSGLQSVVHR

% of control [1]: 23.3%
Structure (SMILES): Cn1cc(-n2cnc3c(NCc4nc5cc(Cl)c(Cl)cc5[nH]4)nc(N4CCOCC4)nc32)cn1

Structure (SMILES): Cc1cc(C)cc([C@@H]2c3cc(C)ccc3NC(=O)CN2C(=O)c2ccc(Br)s2)c1
% of activity ([2]; at 1 µM): 96%
% of activity ([2]; at 10 µM): 96.3%

Structure (SMILES): COCC(=O)NC/C=C/c1ccc2ncnc(Nc3ccc(Oc4ccc(C)nc4)c(C)c3)c2c1 [CP-724714]
% of control [3]: 0.2%

Structure (SMILES): COc1cc(N(C)c2ccnc3ccc(C(F)(F)F)cc23)cc(OC)c1OC
% binding [4]: 92%

% of control ([5]; at 1 µM): 79%
% of control ([5]; at 5 µM): 51%
Structure (SMILES): C=CC(=O)Nc1cccc(C(=O)Nc2ccc(Nc3cc(-c4[nH]c(SC)nc4C)ccn3)cc2)c1

Structure (SMILES): CNC(=O)Nc1ccc(-c2nc(N3CC4CCC(C3)O4)c3cnn(C4CCC5(CC4)OCCO5)c3n2)cc1
% of control [6]: 100%
